Measurements published in patent US20070135405A1, “Novel diazabicyclononene and tetrahydropyridine derivatives with a new polar side-chain” (priority 2003, published 2007).

What follows are compounds tested against T1, human recombinant renin (Homo sapiens, UniProt P00797) (assay: Inhibition of human recombinant renin, enzymatic in vitro assay with Ang I detection by EIA). Settings: human recombinant renin 0.16 ng/mL, synthetic human angiotensin (1-14) 0.5 μM, 37° C. for 3 h; read-out: IC50 (concentration of renin inhibition that inhibited the enzyme activity by 50%).
T1 sequence (P00797 67-406): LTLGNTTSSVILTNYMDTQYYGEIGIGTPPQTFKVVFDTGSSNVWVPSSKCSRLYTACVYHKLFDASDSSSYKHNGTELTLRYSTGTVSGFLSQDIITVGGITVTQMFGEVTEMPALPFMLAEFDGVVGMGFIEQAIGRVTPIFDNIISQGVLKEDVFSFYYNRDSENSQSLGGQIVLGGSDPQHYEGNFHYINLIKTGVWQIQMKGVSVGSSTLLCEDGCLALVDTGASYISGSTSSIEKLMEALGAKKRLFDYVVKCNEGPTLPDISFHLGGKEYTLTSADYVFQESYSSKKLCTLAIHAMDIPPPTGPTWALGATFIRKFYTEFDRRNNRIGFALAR
Assay type: biochemical
Method: Inhibition of Human Recombinant Renin by the Compounds of the Invention The enzymatic in vitro assay was performed in 384-well polypropylene plates (Nunc). The assay buffer consisted of 10 mM PBS (Gibco BRL) including 1 mM EDTA and 0.1% BSA. The incubates were composed of 50 μL per well of an enzyme mix and 2.5 µL of renin inhibitors in DMSO. The enzyme mix was premixed at 4° C. and consists of the following components: • human recombinant renin (0.16 ng/mL)●synthetic human angiotensin (1-14) (0.5 μM) • hydroxyquinoline sulfate (1 mM) The mixtures were then incubated at 37° C. for 3 h. To determine the enzymatic activity and its inhibition, the accumulated Ang I was detected by an enzyme immunoassay (EIA) in 384-well plates (Nunc). 5 μL of the incubates or standards were transferred to immuno plates which were previously coated with a covalent complex of Ang I and bovine serum albumin (Ang I—BSA). 75 μL of Ang I-antibodies in essaybuffer above including 0.01% Tween 20 were added and a primary incubation made at 4° C. overnight. The plates were washed 3 times with PBS including 0.01% Tween 20, and then incubated for 2 h at rt with an antirabbit-peroxidase coupled antibody (WA 934, Amersham).

| IC50 [nM] | Structure (SMILES) |
| --- | --- |
| 3 | Cc1c(CN(C(=O)C2=C(c3ccc(CCCOc4c(F)ccc(F)c4Cl)cc3)C[C@@H]3CC[C@H]2N3)C2CC2)ccnc1OCCC(=O)O (racemic) [Example 5, (rac.)-(1R*, 5S*)-3-(4-{[(3-{4-[3-(2-Chloro-3,6-difluorophenoxy)propyl]-phenyl}-8azabicyclo[3.2.1]oct-2-ene-2-carbonyl)cyclopropylamino]methyl}-3-methyl-pyridin-2-yloxy)propionic acid] |
| 0.18 | Cc1cc(Cl)c(OCCOc2ccc(C3=C(C(=O)N(Cc4ccnc(OCCCO)c4C)C4CC4)C4CCC(C3)N4)cc2)c(Cl)c1 (racemic) [Example 2, (rac.)-(1R*, 5S*)-3-{4-[2-(2,6Dichloro-4-methylphenoxy)ethoxy]phenyl}-8-azabicyclo[3.2.1]oct-2-ene-2-carboxylic acid cyclopropyl-[2-3-hydroxy-propoxy)-3-methylpyridin4-ylmethyl]amide] |
| 6.7 | COC(=O)CCOc1nccc(CN(C(=O)C2=C(c3ccc(CCCOc4c(F)ccc(F)c4Cl)cc3)CC3CCC2N3)C2CC2)c1C (racemic) [Example 6, (rac.)-(1R *, 5S*)-3-(4-{[(3-({4-[3-(2-Chloro-3,6-difluorophenoxy)propyl]-phenyl}-8-azabicyclo[3.2.1]oct-2-ene-2-carbonyl)cyclopropylamino]methyl}-3-methylpyridin-2-yloxy)propionic acid methyl ester] |
| 3 | Cc1c(CN(C(=O)C2=C(c3ccc(CCCOc4c(F)ccc(F)c4Cl)cc3)C[C@@H]3CC[C@H]2N3)C2CC2)ccnc1OCCC(N)=O (racemic) [Example 7, (rac.)-(1R*, 5S*)-3-{4-[3-(2-Chloro-3,6-difluorophenoxy)propyl]phenyl}-8-azabicyclo[3.2.1]oct-2-ene-2-carboxylic acid [2-(2-carbamoylethoxy)-3-methylpyridin-4-ylmethyl]cyclopropylamide] |
| 0.55 | Cc1c(CN(C(=O)C2=C(c3ccc(CCCOc4c(F)ccc(F)c4Cl)cc3)CC3COCC2N3)C2CC2)ccnc1OCCCO (racemic) [Example 4, (rac.)-(1R*, 5S*)-7-(4-13-(2-Chloro-3,6-difluorophenoxy)propyl]phenyl}-3-oxa-9-azabicyclo[3.3.1]non-6-ene-6-carboxylic acid cyclopropyl-[2-(3-hydroxypropoxy)-3-methylpyridin-4-ylmethyl]amide] |
| 5.51 | Cc1c(CN(C(=O)C2=C(c3ccc(CCCOc4c(F)ccc(F)c4Cl)cc3)CC3CS(=O)(=O)CC2N3)C2CC2)ccnc1OCCCO (racemic) [Example 3, (rac.)-(1R*, 5S*)-7-14-[3-(2-Chloro-3,6-difluorophenoxy)propyl]phenyl}-3,3-dioxo-3λ^6-thia-9-azabicyclo[3.3.1]non-6-ene-6-carboxylic acid cyclopropyl-[2-(3-hydroxypropoxy)-3-methylpyridin-4-ylmethyl]amide] |
| 0.25 | Cc1c(CN(C(=O)C2=C(c3ccc(CCCOc4c(F)ccc(F)c4Cl)cc3)C[C@@H]3CC[C@H]2N3)C2CC2)ccnc1OCCCO (racemic) [Example 1, (rac.)-(1R*, 5S*)-3-{4-[3-(2-Chloro-3,6-difluorophenoxy)propyl]phenyl}-8-azabicyclo[3.2.1]oct-2-ene-2-carboxylic acid cyclopropyl-[2-(3-hydroxy-propoxy)-3-methylpyridin-4-ylmethyl]amide] |
